Active and inactive are the calls of the source. The calls are words filed in the database; no cut-off is given here. A value given as a limit tells only on which side of the number the result lay.

For the first assay, the system named is Mus musculus. Briefly: Evaluated for antimalarial activity against Plasmodium berghei in mice (Mus musculus) at 30 mg/kg on day 6. In kind it is functional.
`C=C(c1ccccc1)C1COC2(CCCC2)OO1` (stereo unspecified): the Suppression is on record as more than 90%. Same read-out and setting: next, `C=C(c1ccc(Cl)cc1)C1COC2(CCCC2)OO1` (stereo unspecified): more than 90%.

A further assay has as its system Mus musculus. The experiment in a line: Evaluated for antimalarial activity against Plasmodium berghei in mice (Mus musculus) at 90 mg/kg; active. In kind it is functional, organism-based. On the set-up: dose 90 mg/kg.
As for `C=C(c1ccc(Cl)cc1)C1COC2(CCCCC2)OO1` (stereo unspecified), the result was Active. As to `C=C(c1ccc(C)cc1)C1COC2(CCCC2)OO1` (stereo unspecified), the result was Active. Consider `C=C(c1ccccc1)C1COC2(CCCC2)OO1` (stereo unspecified), for which the outcome was Active. Same read-out and setting: the result for `C=C(c1ccc(Cl)cc1)C1COC2(CCCC2)OO1` (stereo unspecified) reads “Active”.

`C=C(c1ccc(F)cc1)C1COC2(CCCC2)OO1` (stereo unspecified): the result was Active. Regarding `C=C(c1ccc(F)cc1)C1COC2(CCCCC2)OO1` (stereo unspecified), the outcome was Active. Consider `C=C(c1ccc(OC)cc1)C1COC2(CCCC2)OO1` (stereo unspecified), for which the result was Active.

The subject of another assay is Mus musculus. Briefly: Evaluated for antimalarial activity against Plasmodium berghei in mice (Mus musculus) at 90 mg/kg; inactive. In kind it is functional, organism-based. Set-up: dose 90 mg/kg.
As for `C=C(c1ccc(Cl)cc1)C1(C)COC2(CCCCC2)OO1` (stereo unspecified), the outcome was inactive. Turning to `C=C(c1ccc(OC)cc1)C1COC2(CCCCC2)OO1` (stereo unspecified), the outcome was inactive. For `C=C(c1ccccc1)C1(C)COC2(CCCC2)OO1` (stereo unspecified), the outcome was inactive.

Regarding `C=C(c1ccccc1)C1(C)COC2(CCCCC2)OO1` (stereo unspecified), the result was inactive.

For the molecule `C=C(c1ccc(Cl)cc1)C1(C)COC2(CCCC2)OO1` (stereo unspecified), the result was inactive. Same read-out and setting: next, `C=C(c1ccc(C)cc1)C1COC2(CCCCC2)OO1` (stereo unspecified): “inactive”. Same read-out and setting: the result for `C=C(c1ccccc1)C1COC2(CCCCC2)OO1` (stereo unspecified) reads “inactive”.

The values above are taken from ChEMBL document CHEMBL1128628, “in vivo potent antimalarial 1,2,4-trioxanes: Synthesis and activity of 8-(-arylvinyl)-6,7,10-trioxaspiro[4,5]decanes and 3-(-arylvinyl)-1,2,5-trioxaspiro[5,5]undecanes against Plasmodium berghei in mice” (1995).
